{"source": "patent US20050250137A1", "about": "“Molecular targets of cancer and aging” (priority 2002, published 2005)", "tested_on": "immortal (high passage) MDAH041 cells", "data": [{"smiles": "Nc1ncn([C@H]2C[C@H](O)[C@@H](CO)O2)c(=O)n1", "note": "[5-aza-dC, 5-aza-2′-deoxycytidine]", "values": [{"measurement": "2-5A synthetase induced by interferon OAS-1 expression", "result": 76.5, "unit": "fold"}, {"measurement": "2-5 oligoadenylate synthetase 59 kDa OAS-L expression", "result": 40.0, "unit": "fold"}, {"measurement": "041 5-aza Ave Signal Log", "result": 0.93}, {"measurement": "(2-5′) oligoadenylate synthetase 59 kDa isoform OAS-L expression", "result": 40.0, "unit": "fold"}, {"measurement": "ALDH1A3 expression, 5A", "result": 2.8, "unit": "fold"}, {"measurement": "ALDH1A3 expression, IM vs 5-aza-dC, MA", "result": 2.8, "unit": "fold"}, {"measurement": "Adlican expression", "result": 17.6, "unit": "fold"}, {"measurement": "Aldehyde dehydrogenase 6 expression", "result": 4.1, "unit": "fold"}, {"measurement": "Aortic carboxypeptidase-like protein expression", "result": 12.3, "unit": "fold"}, {"measurement": "Associated molecule with the SH3 domain of STAM expression", "result": 7.6, "unit": "fold"}, {"measurement": "B2-bradykinin receptor, 3 expression", "result": 3.8, "unit": "fold"}, {"measurement": "B94 protein (tumor necrosis factor-alpha-inducible) expression", "result": 5.5, "unit": "fold"}, {"measurement": "BAC clone RG118D07 from 7q31 expression", "result": 5.5, "unit": "fold"}, {"measurement": "BST-2 (bone marrow stroma cell surface gene) expression", "result": 38.7, "unit": "fold"}, {"measurement": "Beta-thromboglobin-like protein expression", "result": 17.5, "unit": "fold"}, {"measurement": "Bone morphogenetic protein 2A expression", "result": 9.9, "unit": "fold"}, {"measurement": "CDNA DKFZp564H142 expression", "result": 9.5, "unit": "fold"}, {"measurement": "CIG5 (cytomegalovirus induces interferon-responsive) expression", "result": 66.6, "unit": "fold"}, {"measurement": "CIG5 vipirin expression", "result": 67.0, "unit": "fold"}, {"measurement": "CIG49 (cytomegalovirus induces interferon-responsive) expression", "result": 70.2, "unit": "fold"}, {"measurement": "CIG49 Interferon-induced protein with tetratricopepide repeats 4 expression", "result": 70.2, "unit": "fold"}, {"measurement": "CLTB expression, 5A", "result": 1.5, "unit": "fold"}, {"measurement": "CLTB expression, IM vs 5-aza-dC, MA", "result": 1.5, "unit": "fold"}, {"measurement": "CREG expression, 5A", "result": 2.2, "unit": "fold"}, {"measurement": "CREG expression, IM vs 5-aza-dC, MA", "result": 2.21, "unit": "fold"}, {"measurement": "CYP1B1 expression, 5A", "result": 8.2, "unit": "fold"}, {"measurement": "Carbonic anhydrase precursor (CA 12) expression", "result": 8.9, "unit": "fold"}, {"measurement": "Complement cytolysis inhibitor (CLI) expression", "result": 5.1, "unit": "fold"}, {"measurement": "Complement factor H expression", "result": 6.8, "unit": "fold"}, {"measurement": "Cysteine-rich heart protein expression", "result": 8.8, "unit": "fold"}, {"measurement": "Cytokine (GRO-beta, GRO-2) expression", "result": 29.6, "unit": "fold"}, {"measurement": "Cytokine (GRO-gamma) expression", "result": 56.8, "unit": "fold"}, {"measurement": "DUSP6 (dual specificity MAP kinase-phosphatase) expression", "result": 4.6, "unit": "fold"}, {"measurement": "Dickkopf-1 (hdkk-1) expression", "result": 14.4, "unit": "fold"}, {"measurement": "Dioxin-inducible cytochrome P450 (CYP1B1) expression", "result": 6.9, "unit": "fold"}, {"measurement": "Dual-specificity protein phosphatase expression", "result": 12.6, "unit": "fold"}, {"measurement": "FLJ14675 expression, 5A", "result": 3.8, "unit": "fold"}, {"measurement": "Factor H homologue expression", "result": 7.5, "unit": "fold"}, {"measurement": "Fibulin-2 expression", "result": 21.8, "unit": "fold"}, {"measurement": "Gamma-interferon-inducible protein (IP-30) expression", "result": 31.2, "unit": "fold"}, {"measurement": "Genes for histones H2B.1 and H2A expression", "result": 4.3, "unit": "fold"}, {"measurement": "Gravin expression", "result": 12.2, "unit": "fold"}, {"measurement": "HEM45 (interferon-stimulated gene, 20-kd; ISG20) expression", "result": 50.2, "unit": "fold"}, {"measurement": "HEM45, ISG-20 expression", "result": 50.2, "unit": "fold"}, {"measurement": "HLA class I locus C heavy chain expression", "result": 5.7, "unit": "fold"}, {"measurement": "HLA-F, gene for major histocompatibility complex class I F expression", "result": 29.4, "unit": "fold"}, {"measurement": "HPS5 expression, 5A", "result": 1.6, "unit": "fold"}, {"measurement": "HSPA2 expression, 5A", "result": 1.6, "unit": "fold"}, {"measurement": "HSPA2 expression, IM vs 5-aza-dC, MA", "result": 1.6, "unit": "fold"}, {"measurement": "HTATIP2 expression, 5A", "result": 5.6, "unit": "fold"}, {"measurement": "IGFBP3 expression, IM vs 5-aza-dC, MA", "result": 2.48, "unit": "fold"}, {"measurement": "IGFBP4 expression, IM vs 5-aza-dC, MA", "result": 3.72, "unit": "fold"}, {"measurement": "Inhibitor of apoptosis protein 1 expression", "result": 13.1, "unit": "fold"}, {"measurement": "Insulin-like growth factor binding protein 6 expression", "result": 5.9, "unit": "fold"}, {"measurement": "Insulin-like growth factor binding protein-4 expression", "result": 3.8, "unit": "fold"}, {"measurement": "Integral membrane glycoprotein LIG-1 (TM4SF1) expression", "result": 5.2, "unit": "fold"}, {"measurement": "Interferon regulatory factor 7B expression", "result": 17.5, "unit": "fold"}, {"measurement": "Interferon, alpha-inducible protein 27 expression", "result": 482.0, "unit": "fold"}, {"measurement": "Interferon-induced p78, Mx1 expression", "result": 202, "unit": "fold"}, {"measurement": "Interferon-induced p78, MxB expression", "result": 122.1, "unit": "fold"}, {"measurement": "Interferon-inducible 56 Kd protein expression", "result": 36.6, "unit": "fold"}, {"measurement": "Interferon-inducible 56 kDa protein expression", "result": 36.6, "unit": "fold"}, {"measurement": "Interferon-inducible membrane protein 9-27 (IFITM1) expression", "result": 8.8, "unit": "fold"}, {"measurement": "Interferon-inducible peptide (6-16) expression", "result": 10.2, "unit": "fold"}, {"measurement": "Interferon-inducible protein 9-27 expression", "result": 8.8, "unit": "fold"}, {"measurement": "Interferon-inducible protein (Absent in Melanoma 2, AIM2) expression", "result": 21.6, "unit": "fold"}, {"measurement": "Interferon-inducible protein AIM2 (absent in melanoma) expression", "result": 21.6, "unit": "fold"}, {"measurement": "Interferon-inducible protein Mx1 expression", "result": 42, "unit": "fold"}, {"measurement": "Interferon-inducible protein p78, Mx2 expression", "result": 202, "unit": "fold"}, {"measurement": "Interferon-stimulated gene p27 mRNA expression", "result": 482.0, "unit": "fold"}, {"measurement": "Interleukin 8 expression", "result": 92.7, "unit": "fold"}, {"measurement": "K12 protein precursor (SECTM1) expression", "result": 19.6, "unit": "fold"}, {"measurement": "KIAA0744 protein expression", "result": 8.6, "unit": "fold"}, {"measurement": "KIAA 1077 protein Sulfatase FP expression", "result": 10.9, "unit": "fold"}, {"measurement": "KIAA1750 expression, 5A", "result": 2.9, "unit": "fold"}, {"measurement": "KIAA1750 expression, IM vs 5-aza-dC, MA", "result": 2.88, "unit": "fold"}, {"measurement": "Keratin 18 expression", "result": 13.5, "unit": "fold"}, {"measurement": "Ly-6-related protein (9804) gene expression", "result": 34.1, "unit": "fold"}, {"measurement": "MAP1LC3B expression, 5A", "result": 1.7, "unit": "fold"}, {"measurement": "Major group rhinovirus receptor (HRV) ICAM expression", "result": 28.9, "unit": "fold"}, {"measurement": "Major group rhinovirus receptor (HRV) expression", "result": 28.9, "unit": "fold"}, {"measurement": "Melanoma growth stimulatory activity (MGSA) (GRO-1) expression", "result": 64.6, "unit": "fold"}, {"measurement": "Microphage migration inhibitory factor (MIF) expression", "result": 42.1, "unit": "fold"}, {"measurement": "Microtubular protein 44 expression", "result": 17.8, "unit": "fold"}, {"measurement": "Microtubular protein p44 (IFI44) expression", "result": 17.8, "unit": "fold"}, {"measurement": "NK4 protein (natural killer cell transcript 4) expression", "result": 20.2, "unit": "fold"}, {"measurement": "Neurite outgrowth-promoting protein expression", "result": 7.1, "unit": "fold"}, {"measurement": "Neuromedin B Precursor expression", "result": 5.6, "unit": "fold"}, {"measurement": "Nk4 protein (natural killer cell transcript 4) expression", "result": 20.2, "unit": "fold"}, {"measurement": "OPTN expression, 5A", "result": 2.6, "unit": "fold"}, {"measurement": "OPTN expression, IM vs 5-aza-dC, MA", "result": 2.6, "unit": "fold"}, {"measurement": "Optineurin-like protein expression", "result": 4.2, "unit": "fold"}, {"measurement": "PCTAIRE 2 (pctaire protein kinase) expression", "result": 19.3, "unit": "fold"}, {"measurement": "Pig 7 expression", "result": 9.4, "unit": "fold"}, {"measurement": "Placental protein 5 (PP5) expression", "result": 29.3, "unit": "fold"}, {"measurement": "Placental tissue factor (two forms) expression", "result": 8.7, "unit": "fold"}, {"measurement": "Putative monocarboxylate transporter expression", "result": 6.3, "unit": "fold"}, {"measurement": "Rad (Ras associated with diabetes) expression", "result": 19.7, "unit": "fold"}, {"measurement": "Retinoic acid receptor responder 3 expression", "result": 7.1, "unit": "fold"}, {"measurement": "SERPINB2 expression, 5A", "result": 4.2, "unit": "fold"}, {"measurement": "SERPINB2 expression, IM vs 5-aza-dC, MA", "result": 4.2, "unit": "fold"}, {"measurement": "STAT1α expression, IM vs 5-aza-dC, MA", "result": 2.92, "unit": "fold"}, {"measurement": "Signal Transducer Activator of Transcription 1 STAT1 91 kDa expression", "result": 7.6, "unit": "fold"}, {"measurement": "Similar to gb: L 19779 HISTONE H2A.1 expression", "result": 10.3, "unit": "fold"}, {"measurement": "Skin collagenase MMP1 expression", "result": 4.8, "unit": "fold"}, {"measurement": "TESTIN 3 testis derived transcript (3 LIM domains) expression", "result": 8.1, "unit": "fold"}, {"measurement": "TNF-related apoptosis inducing ligand TRAIL expression", "result": 42.2, "unit": "fold"}, {"measurement": "TNF-related apoptosis inducing ligand, TRAIL expression", "result": 42.2, "unit": "fold"}, {"measurement": "TNFAIP2 expression, 5A", "result": 5.4, "unit": "fold"}, {"measurement": "TNFAIP2 expression, IM vs 5-aza-dC, MA", "result": 5.41, "unit": "fold"}, {"measurement": "Tat-interacting protein TIP30 expression", "result": 8.9, "unit": "fold"}, {"measurement": "Transcription Factor MAFF expression", "result": 8.1, "unit": "fold"}, {"measurement": "Transcription factor ISGF-3 (Stat 1) expression", "result": 7.6, "unit": "fold"}, {"measurement": "Transglutaminase (TGase) expression", "result": 144.6, "unit": "fold"}, {"measurement": "Tripartite motif-containing protein 14, TRIM14 expression", "result": 6.2, "unit": "fold"}, {"measurement": "Tumor antigen (L6) expression", "result": 17.5, "unit": "fold"}, {"measurement": "Tumor necrosis factor-inducible (TSG-6) expression", "result": 10.3, "unit": "fold"}, {"measurement": "Tyrosine protein kinase (CAK) gene expression", "result": 5.7, "unit": "fold"}, {"measurement": "Ubiquitin-conjugating enzyme E2L6 (UBE2L6) expression", "result": 5.9, "unit": "fold"}, {"measurement": "VAMP45 (vesicle-associated membrane protein 5) expression", "result": 9.1, "unit": "fold"}, {"measurement": "mRNA expressed in osteoblast expression", "result": 32.5, "unit": "fold"}, {"measurement": "uPA gene (urokinase-plasminogen activator gene) expression", "result": 4.4, "unit": "fold"}]}]}
